Measurements as given in ChEMBL document CHEMBL1137292, “Synthesis and activity of a folate peptide camptothecin prodrug” (Bioorg Med Chem Lett, 2006).
Starred links: 1 amine or outer side, 2 acyl side, 3 side chain; linkers in the order of their positions; H or OH if unused. Residues, ends and D or L forms follow the SMILES beside them. *: point of attachment. S(CH2)2OCO2(CPT-20-yl) = CC[C@@]1(OC(=O)OCCS*)C(=O)OCc2c1cc1n(c2=O)Cc2cc3ccccc3nc2-1; Pteroyl = Nc1nc2ncc(CNc3ccc(C(=O)*)cc3)nc2c(=O)[nH]1; γGlu = O=C(O)[C@H](CCC(=O)[*:2])N[*:1]

Legend:
[1] = system: KB; test: Antiproliferative activity against human KB cells expressing FR in presence of folic acid after 72 hrs by [3H]thymidine incorporation assay; type: functional, cell-based
[2] = target: Folate receptor alpha (Homo sapiens) (UniProt P15328); test: Displacement of [3H]folic acid from human folate receptor expressed in KB cells relative to folic acid; type: cell-based
Sequence of Folate receptor alpha (Homo sapiens) (P15328 25-234 limits assumed): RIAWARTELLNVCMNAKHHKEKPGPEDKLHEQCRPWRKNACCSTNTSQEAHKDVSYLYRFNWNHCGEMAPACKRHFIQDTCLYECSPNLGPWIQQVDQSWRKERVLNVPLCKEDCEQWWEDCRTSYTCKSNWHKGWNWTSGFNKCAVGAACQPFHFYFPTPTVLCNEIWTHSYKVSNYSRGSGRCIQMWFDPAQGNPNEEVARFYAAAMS

SMILES: CC[C@@]1(OC(=O)OCCSSC[C@H](NC(=O)[C@H](CC(=O)O)NC(=O)[C@H](CC(=O)O)NC(=O)[C@H](CCCNC(=N)N)NC(=O)[C@H](CC(=O)O)NC(=O)CC[C@H](NC(=O)c2ccc(NCc3cnc4nc(N)[nH]c(=O)c4n3)cc2)C(=O)O)C(=O)O)C(=O)OCc2c1cc1n(c2=O)Cc2cc3ccccc3nc2-1 ({Pteroyl-γGlu}-DRDDC(S(CH2)2OCO2(CPT-20-yl))-OH)
- IC50 [1]: 0.01 µM
- relative binding affinity (RBA) [2]: 0.44
